Experimental data: paper PMC8110684, “Effects of Bacillus subtilis iturin A on HepG2 cells in vitro and vivo” (AMB Express, 2021)
Read-outs that look alike come from different tables or passages of the source. Where a SMILES comes first, the peptide text is derived from it.

Legend:
[1] = system: HepG2 cells; test: Capability to enter cells (CFNSE label, fluorescence microscopy); conditions: dissolved in cell culture medium, incubated with HepG2 for 10 min, fluorescence microscope
Method: (§1) The purified CFNSE-iturin A was dissolved in cell culture medium and incubated with HepG2 cells for 10 min, and then observed under a fluorescence microscope and photographed. The control group was cells incubated with CFNSE for the same time.

[2] = system: HepG2 cells
Method: as §1

[3] = Effect of treatment on mice health (weight, serum biochemistry, necropsy, histopathology); format: in vivo, BALB/c nude mice; conditions: 3 mg/kg per day
Method: During the 15-day trial, the weight and food intake of mice were recorded daily.
At euthanasia, blood was collected after the animals had been fasted overnight. Blood samples were collected from both control and test groups via cardiac puncture under ketamine anesthesia. All blood samples were then subjected to clinical analysis of aspartate aminotransferase (AST), alanine aminotransferase (ALT), and creatinine (SCr).
Mice were examined for gross lesions. Tissues and organs of interest were retained. The liver, kidneys, and spleen of all mice were weighed soon after dissection and then preserved in 4% paraformaldehyde for histopathological examination (Turki et al. [2010]). Histopathological assessments were performed to evaluate viscera retained from both control and treated animals. Viscera of interest were trimmed, processed, embedded in paraffin, sectioned, and stained with H&E before their microscopic examination.

Compound | entry into HepG2 cells (cell fluorescence) [1] | entry into HepG2 cells (cell fluorescence) [2] | kidney histopathology (H&E) ([3]; 15 days) | liver histopathology (H&E) ([3]; 15 days) | spleen histopathology (H&E) ([3]; 15 days) | body weight versus control group ([3]; 15 days, n = 6) | weight and viscera indexes of liver, spleen and kidney versus control ([3]; 15 days, n = 6) | serum ALT versus control ([3]; end of administration, n = 6) | serum AST versus control ([3]; end of administration, n = 6) | serum creatinine (SCr) versus control ([3]; end of administration, n = 6)
5(6)-Carboxy fluorescein N-succinimidyl ester [CFNSE] | could not enter the cells |  |  |  |  |  |  |  |  | 
CCCCCCCCCCCC1CC(=O)N[C@@H](CC(N)=O)C(=O)N[C@H](Cc2ccc(O)cc2)C(=O)N[C@H](CC(N)=O)C(=O)N[C@@H](CCC(N)=O)C(=O)N2CCC[C@H]2C(=O)N[C@H](CC(N)=O)C(=O)N[C@@H](CO)C(=O)N1 (stereo partly shown) [iturin A] (HELM PEPTIDE1{N.[dY].[dN].Q.P.[dN].S.[CCCCCCCCCCCC(CC(=O)[*:2])N[*:1]]}$PEPTIDE1,PEPTIDE1,1:R1-8:R2$$$V2.0) |  | could enter HepG2 cells within very short time | no necrotic cells or cell swelling was found | no hepatocyte swelling, necrosis, inflammatory cell infiltration, or other phenomena were observed | orderly arrangement of cells without necrosis | no significant difference | No significant differences | increased significantly | increased significantly | no significant difference
